Laboratory results: ChEMBL document CHEMBL1201862, “PubChem BioAssay data set” (2004)
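Results reflect a 48-hour exposure of cells in 96-well plates to compound at five concentrations. GI50 = concentration required for 50% inhibition of growth.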 Activity calls are given as the source filed them. No stated cut-off is given here; in the data, active = GI50 up to about 1.1 µM and inactive = higher.

Legend:
Experiment in all cases: DTP human tumour cell line panel, 48 h
[1] = test system: MDA-MB-435
[2] = test system: IGROV-1
[3] = test system: SR
[4] = test system: COLO 205
[5] = test system: OVCAR-3
[6] = test system: LOX IMVI
[7] = test system: NCI-H23
[8] = test system: SK-MEL-2
[9] = test system: MDA-N
[10] = test system: Hs-578T
[11] = test system: HOP-92
[12] = test system: UACC-62
[13] = test system: OVCAR-4
[14] = test system: CCRF-CEM
[15] = test system: SK-MEL-28
[16] = test system: HCC 2998
[17] = test system: NCI/ADR-RES
[18] = test system: HCT-15
[19] = test system: HL-60
[20] = test system: SF-295

Row | Compound | GI50 [1] | GI50 [2] | GI50 [3] | GI50 [4] | GI50 [5] | GI50 [6] | GI50 [7] | GI50 [8] | GI50 [9] | GI50 [10] | GI50 [11] | GI50 [12] | GI50 [13] | GI50 [14] | GI50 [15] | GI50 [16] | GI50 [17] | GI50 [18] [µM] | GI50 [19] | GI50 [20]
1 | Cc1ccc2c(O)c3c(cc2c1)C(=O)c1c2c(cc(O)c1C3=O)C1(C)OC(O2)C(O)C(N(C)C)C1O (configuration not stated) | 1.39 µM (inactive) | 0.912 µM (active) | 0.0452 µM (active) | 0.91 µM (active) | 0.794 µM (active) | 1.11 µM (active) | 1.26 µM (inactive) | 1.85 µM (inactive) | 1.63 µM (inactive) | 1.02 µM (active) | 1.01 µM (active) | 1.07 µM (active) | 1.56 µM (inactive) | 0.154 µM (active) | 1.32 µM (inactive) | 1.19 µM (inactive) | 1.4 µM (inactive) | 0.614 | 0.155 µM (active) | 1.09 µM (active)
2 | CCOC(=O)/C=C(\C(=O)OCC)n1cc(C)c(=O)n(Cc2cn(CCCCOC(C)=O)nn2)c1=O | 9.95 µM (inactive) | 13.6 µM (inactive) | 3.05 µM (inactive) | 2.98 µM (inactive) | 13.3 µM (inactive) | 6.62 µM (inactive) | 14.2 µM (inactive) | 15.9 µM (inactive) | 20.7 µM (inactive) | 16.3 µM (inactive) | 2.15 µM (inactive) | 15.9 µM (inactive) | 23.2 µM (inactive) | 1.83 µM (inactive) | 11.5 µM (inactive) | 18.3 µM (inactive) | 19.6 µM (inactive) | 6.37 | 2.27 µM (inactive) | 18.4 µM (inactive)
3 | CCNC1=C(NC(=O)CC)C(=O)c2ccccc2C1=O | > 10 µM (inactive) | > 100 µM (inactive) | > 100 µM (inactive) | 46.5 µM (inactive) | 32.1 µM (inactive) |  | 70.8 µM (inactive) |  | > 100 µM (inactive) | > 100 µM (inactive) | > 100 µM (inactive) | 74.5 µM (inactive) | 87.3 µM (inactive) | 56 µM (inactive) | > 100 µM (inactive) | 73.1 µM (inactive) | 58.7 µM (inactive) | 64.3 | 74.8 µM (inactive) | > 100 µM (inactive)
4 | COC(=O)[C@@]12CSC[C@]1(C(=O)OC)N[C@@H](c1ccccc1O)C2 | > 100 µM (inactive) | > 100 µM (inactive) | > 100 µM (inactive) | > 100 µM (inactive) | > 100 µM (inactive) |  | > 100 µM (inactive) | > 100 µM (inactive) | > 100 µM (inactive) | > 100 µM (inactive) | > 100 µM (inactive) | > 100 µM (inactive) | > 100 µM (inactive) | > 100 µM (inactive) | > 100 µM (inactive) | > 100 µM (inactive) | > 100 µM (inactive) | > 100 | > 100 µM (inactive) | > 100 µM (inactive)
5 | CC1(C)COP(=S)(c2ccccn2)O[C@@H]1c1ccccc1 (some centres not stated) | > 100 µM (inactive) | > 100 µM (inactive) | 30 µM (inactive) | 38.3 µM (inactive) |  | > 100 µM (inactive) | 69.5 µM (inactive) |  | 74.6 µM (inactive) | > 100 µM (inactive) | > 100 µM (inactive) | > 100 µM (inactive) | 70 µM (inactive) | 42.1 µM (inactive) | > 100 µM (inactive) | > 100 µM (inactive) | 66.1 µM (inactive) | 94.2 | 24.1 µM (inactive) | 55.2 µM (inactive)
6 | O=C(CCCn1ccnc1[N+](=O)[O-])NCCn1cncc1[N+](=O)[O-] | > 100 µM (inactive) | > 100 µM (inactive) | > 100 µM (inactive) | > 100 µM (inactive) | > 100 µM (inactive) | > 100 µM (inactive) | > 100 µM (inactive) | > 100 µM (inactive) | > 100 µM (inactive) | > 100 µM (inactive) | > 100 µM (inactive) | > 100 µM (inactive) | > 100 µM (inactive) | > 100 µM (inactive) | > 100 µM (inactive) |  | > 100 µM (inactive) | > 100 | > 100 µM (inactive) | > 100 µM (inactive)
7 | CN(C)CCN1Nc2c3ccccc3nc3c(C(=O)NCCCN(C)CCCNC(=O)c4ccc5c6c(c7ccccc7nc46)NN5CCN(C)C)ccc1c23 | < 0.01 µM (active) | < 0.01 µM (active) | < 0.01 µM (active) | 0.0143 µM (active) | 0.0333 µM (active) | < 0.01 µM (active) | 0.0202 µM (active) | 0.0109 µM (active) | < 0.01 µM (active) | 0.0352 µM (active) | 0.305 µM (active) | 0.0173 µM (active) | 0.0266 µM (active) | 0.0274 µM (active) | 0.0498 µM (active) | < 0.01 µM (active) | 1.36 µM (inactive) | 0.178 | 0.012 µM (active) | < 0.01 µM (active)
8 | COc1c(O)cc(C(=O)O[C@@H]2Cc3c(O)cc(O)cc3O[C@@H]2c2cc(O)c(O)c(O)c2)cc1O | 17.4 µM (inactive) | 46.2 µM (inactive) | 18.7 µM (inactive) |  | 49.4 µM (inactive) | 19.7 µM (inactive) | 31.5 µM (inactive) | 63.2 µM (inactive) | 24.4 µM (inactive) | > 100 µM (inactive) | > 100 µM (inactive) | 25.8 µM (inactive) | 20.2 µM (inactive) |  | > 100 µM (inactive) | 97.1 µM (inactive) | 32.9 µM (inactive) | 26.5 | 19.7 µM (inactive) | 20.3 µM (inactive)
